From publication PMC6597960 (Journal of Alzheimer's Disease Reports, 2019)
Peptide text beside a SMILES is read from it.

Tests used:
[1] = system: APPSWE/Tg2576 mice; test: Efficacy in 5-month-old AD model mice: Y-maze spontaneous alternation; format: in vivo, mouse; settings: 5-month-old mice, 100 μg s.c. biweekly for 5 months, n = 12
[2] = system: SH-SY5Y neuroblastoma cell line; test: Cell cytotoxicity assay; format: cell-based; settings: up to a concentration of 20 μM; 72 h; CellTiterGlo

[FFVLK]4
Y-maze % alternation, after vs before treatment [1]: improved % alternation results after treatment

C[C@H](O)[C@@H](NC(=O)[C@@H](Cc1c[nH]c2ccccc12)NC(=O)[C@@H](CCC(=O)O)NC(=O)CNC(=O)[C@@H](CCCCN)NC(=O)[C@H](N)Cc1c[nH]c2ccccc12)C(=O)NCC(=O)N[C@H](CCCNC(=N)N)C(=O)NCCC(=O)NCCCC[C@H](NC(=O)CCNC(=O)[C@@H](CCCNC(=N)N)NC(=O)CNC(=O)[C@H](NC(=O)[C@@H](Cc1c[nH]c2ccccc12)NC(=O)[C@@H](CCC(=O)O)NC(=O)CNC(=O)[C@@H](CCCCN)NC(=O)[C@H](N)Cc1c[nH]c2ccccc12)[C@H](C)O)C(=O)NCCCC[C@H](NC(=O)[C@H](CCCCNC(=O)CCNC(=O)[C@@H](CCCNC(=N)N)NC(=O)CNC(=O)[C@H](NC(=O)[C@@H](Cc1c[nH]c2ccccc12)NC(=O)[C@@H](CCC(=O)O)NC(=O)CNC(=O)[C@@H](CCCCN)NC(=O)[C@H](N)Cc1c[nH]c2ccccc12)[C@H](C)O)NC(=O)CCNC(=O)[C@@H](CCCNC(=N)N)NC(=O)CNC(=O)[C@H](NC(=O)[C@@H](Cc1c[nH]c2ccccc12)NC(=O)[C@@H](CCC(=O)O)NC(=O)CNC(=O)[C@@H](CCCCN)NC(=O)[C@H](N)Cc1c[nH]c2ccccc12)[C@H](C)O)C(=O)N[C@@H](CS)C(=O)O [RI-peptide] (HELM PEPTIDE1{[dW].[dK].G.[dE].[dW].[dT].G.[dR].[bAla].K.K.C}|PEPTIDE2{[dW].[dK].G.[dE].[dW].[dT].G.[dR].[bAla].K}|PEPTIDE3{[dW].[dK].G.[dE].[dW].[dT].G.[dR].[bAla]}|PEPTIDE4{[dW].[dK].G.[dE].[dW].[dT].G.[dR].[bAla]}$PEPTIDE1,PEPTIDE4,10:R3-9:R2|PEPTIDE1,PEPTIDE2,11:R3-10:R2|PEPTIDE2,PEPTIDE3,10:R3-9:R2$$$V2.0; N-terminus and C-terminus assumed)
Toxicity in SH-SY5Y cells [2]: not toxic
